This is an account of results in the C3SDB collision cross section collection.

The conditions of data set [1]: instrument: DT, stepped-field.
For data set [2] the following is noted: instrument: DT, single field, calibrated with Agilent tune mix (Agilent).
For data set [3] the following is noted: instrument: DT, stepped-field. This is another data set of the same source.

Values joined by “and” are separate entries in the source; they are usually repeats but may differ in a detail not shown here. Identical values can stand only once.

As for `C[C@H]1O[C@@H](n2cnc3c(N)ncnc32)[C@H](O)[C@@H]1O` [5'-Deoxyadenosine], the “collision cross section (N2)” value in data set [1] ([M+H]+) is recorded as 162.1 Å²; in data set [1] ([M+Na]+), 171.99 Å²; in data set [2] ([M+Na]+), 166.8 Å²; in data set [2] ([M-H]-), 151.91 Å². For `Cn1c(=O)c2c(ncn2C)n(C)c1=O` [Caffeine], the “collision cross section (N2)” value in data set [1] ([M+H]+) stood at 145.4 Å²; in data set [1] ([M+Na]+), 142.93 Å²; in data set [2] ([M+H]+), 140.9 Å². Take `OC[C@H]1O[C@@H](O[C@H]2[C@H](O)[C@@H](O)[C@H](O)O[C@@H]2CO)[C@H](O)[C@@H](O)[C@@H]1O` [Cellobiose]: the “collision cross section (N2)” value was 178.66 Å² in data set [1] ([M+Na]+) and 178.1 Å² in data set [2] ([M+Na]+).

On to `CCCCCCCCCCCCCCCCCC(=O)N[C@@H](CO)[C@H](O)CCCCCCCCCCCCCCC` [Cer(36:00)], for which the “collision cross section (N2)” value in data set [3] ([M+H]+) is 261.92 Å². The same measure, in the same setting: for `CCCCCCCCCCCCCCCCCCCC(=O)N[C@@H](CO)[C@H](O)CCCCCCCCCCCCCCC` [Cer(38:00)] the value was 267.37 Å². For `CCCCCCCCCCCCC=CC[C@@H](O)[C@H](CO)NC(=O)CC=CCCCCCCCCCCCCCCCCCC` [Cer(40:02)], the “collision cross section (N2)” value in data set [3] ([M+H-H2O]+) was determined as 267.47 Å²; in data set [3] ([M+H]+) it was 272.27 Å².

Take `CCCCCCCCCCCCC=CC[C@@H](O)[C@H](CO)NC(=O)CC=CCCCCCCCCCCCCCCCCCCCCCC` [Cer(44:02)]: the “collision cross section (N2)” value in data set [3] ([M+H-H2O]+) came to 279.7 Å². For the compound `OCC1(O)OC[C@@H](O)[C@@H](O)[C@@H]1O` (stereo partly drawn) [D-Fructose], the “collision cross section (N2)” value was 141.93 Å² in data set [1] ([M+Na]+) and 141.4 Å² in data set [2] ([M+Na]+). For the compound `Nc1ccn([C@H]2C[C@H](O)[C@@H](CO)O2)c(=O)n1` [Deoxycytidine], the “collision cross section (N2)” value in data set [1] ([M+Na]+) is 158.41 Å²; in data set [2] ([M+Na]+) it was 154.5 Å²; in data set [2] ([M-H]-), 146.84 Å². Taken in the same sequence, the figures for `O=C(COP(=O)(O)O)[C@@H](O)[C@H](O)[C@H](O)CO` [Fructose-1-phosphate] were 159.68 Å², 155.4 Å² and 141.86 Å².

As for `Cn1cncc1C[C@H](NC(=O)CCN)C(=O)O` [L-Anserine], the “collision cross section (N2)” value was 155.97 Å² in data set [1] ([M+H]+), 159.77 Å² in data set [1] ([M+Na]+), 154.1 Å² in data set [2] ([M+H]+) and 152.32 Å² in data set [2] ([M-H]-). Take `OC[C@H]1O[C@@H](O[C@H]2[C@H](O)[C@H](O)[C@H](O[C@H]3[C@H](O)[C@H](O)[C@H](O[C@H]4[C@H](O)[C@H](O)C(O)O[C@@H]4CO)O[C@@H]3CO)O[C@@H]2CO)[C@@H](O)[C@@H](O)[C@@H]1O` (stereo partly specified) [Mannotetraose]: the “collision cross section (N2)” value in data set [1] ([M+Na]+) is on record as 234.12 Å².

With `CCCCCCCCCCCCCCCCCCCCCCCC(=O)OC` [Methyl Tetracosanoate], the “collision cross section (N2)” value in data set [1] ([M+H]+) was 187.54 Å².

For `CO[C@@H]1O[C@H](CO)[C@H](O)[C@H](O)[C@H]1O` [Methyl beta-D-galactoside], in data set [1] ([M+Na]+), the “collision cross section (N2)” value was determined as 149.97 Å². Still for that read-out and setting: in the case of `CC(=O)N[C@@H]1C(O)O[C@H](CO)[C@@H](O)[C@@H]1O` (stereo partly drawn) [N-Acetyl-D-mannosamine] it was 154.76 Å²; in that of `CC(=O)N[C@@H](C)C(=O)O` [N-Acetyl-L-alanine], 138.07 Å². Take `CC(=O)NCCCCN` [N-Acetylputrescine]: the “collision cross section (N2)” value in data set [1] ([M+H]+) amounted to 131.7 Å²; in data set [1] ([M+Na]+) it was 137.57 Å²; in data set [2] ([M+H]+), 128.3 Å²; in data set [2] ([M-H]-), 127.22 Å². On to `O=C1CC(c2ccc(O)cc2)Oc2cc(O)cc(O)c21` (stereo unspecified) [Naringenin], for which the “collision cross section (N2)” value in data set [1] ([M+H]+) worked out at 167.96 Å². With `C[C@@H]1O[C@@H](O[C@H]2[C@H](Oc3cc(O)c4c(c3)O[C@H](c3ccc(O)cc3)CC4=O)O[C@H](CO)[C@@H](O)[C@@H]2O)[C@H](O)[C@H](O)[C@H]1O` [Naringin], the “collision cross section (N2)” value in data set [1] ([M+H]+) was 240.62 Å²; in data set [1] ([M+Na]+), 234.02 Å²; in data set [2] ([M+H]+), 237.5 Å².

In the case of `NC(=O)c1ccc[n+]([C@@H]2O[C@H](COP(=O)(O)OP(=O)(O)OC[C@H]3O[C@@H](n4cnc5c(=O)nc[nH]c54)[C@H](O)[C@@H]3O)[C@@H](O)[C@H]2O)c1` [Nicotinamide Hypoxanthine Dinucleotide], the “collision cross section (N2)” value was found to be 222.79 Å² in data set [1] ([M+H]+) and 232.01 Å² in data set [1] ([M+Na]+).

With `O=C(O)c1cccnc1` [Nicotinic Acid], the “collision cross section (N2)” value in data set [1] ([M+H]+) was 128.35 Å². For `CCCCCCCC/C=C\CCCCCCCC(=O)O` [Oleic Acid], the “collision cross section (N2)” value in data set [1] ([M+Na]+) was 181.37 Å².

For `CC[C@H](NC(=O)CC[C@H](N)C(=O)O)C(=O)NCC(=O)O` [Ophthalmic Acid], the “collision cross section (N2)” value in data set [1] ([M+H]+) worked out at 167.23 Å²; in data set [1] ([M+Na]+), 165.7 Å². Consider `CCCCCCCCCCC(=O)OC[C@H](COP(=O)([O-])OCC[N+](C)(C)C)OC(=O)CCCCCCCCCC` [PC(11:0/11:0)], for which the “collision cross section (N2)” value worked out at 257.07 Å² in data set [1] ([M+H]+) and 260.59 Å² in data set [1] ([M+Na]+). `CCCCCCC/C=C\CCCCCCCC(=O)OC[C@H](COP(=O)(O)OCCN)OC(=O)CCCCCCC/C=C\CCCCCCCCC` [PE(18:1/18:1)]: the “collision cross section (N2)” value was 280.6 Å² and 284.02 Å² in data set [1] ([M+H]+); 287.57 Å² and 288.54 Å² in data set [1] ([M+Na]+).

Consider `OC[C@H]1O[C@H](OC[C@H]2OC(O)(CO)[C@@H](O)[C@@H]2O)[C@H](O)[C@@H](O)[C@@H]1O` (stereo partly specified) [Palatinose], for which the “collision cross section (N2)” value in data set [1] ([M+Na]+) is 177.31 Å².

On to `O=C1C=Cc2cccc3cccc1c23` [Perinaphthenon], for which the “collision cross section (N2)” value in data set [1] ([M+H]+) is 134.59 Å². Turning to `NC(=O)CC[C@H](NC(=O)Cc1ccccc1)C(=O)O` [Phenylacetyl L-Glutamine], the “collision cross section (N2)” value in data set [1] ([M+H]+) was determined as 160.93 Å²; in data set [1] ([M+Na]+), 171.25 Å². On to `C[N+](C)(C)CCOP(=O)(O)O` [Phosphocholine], for which the “collision cross section (N2)” value in data set [1] ([M+H]+) came to 138.54 Å².

Consider `COc1cc(O)c2c(c1)O[C@H](c1ccccc1)CC2=O` [Pinostrobin], for which the “collision cross section (N2)” value in data set [1] ([M+H]+) is 164.24 Å². In the case of `CCCCC[C@H](O)/C=C/[C@@H]1[C@@H](C/C=C\CCCC(=O)O)[C@@H](O)C[C@H]1O` [Prostaglandin F2 alpha], in data set [1] ([M+Na]+), the “collision cross section (N2)” value was 207.33 Å². Still for that read-out and setting: for `CCCCC[C@H](O)/C=C/[C@@H]1[C@@H](C/C=C\CCCC(=O)O)[C@@H](O)C[C@H]1O` [Prostaglandin F2a] the value was 205.7 Å². The same measure, in the same setting: in the case of `CCCCC[C@H](O)/C=C/[C@@H]1[C@@H](C/C=C\CCCC(=O)O)[C@@H]2C[C@H]1OO2` [Prostaglandin H2] it was 202.63 Å². Take `CO[C@H]1/C=C/O[C@@]2(C)Oc3c(C)c(O)c4c(c3C2=O)C(=O)/C(=C/NN2CCN(C)CC2)C(=C4O)NC(=O)/C(C)=C\C=C\[C@H](C)[C@H](O)[C@@H](C)[C@@H](O)[C@@H](C)[C@H](OC(C)=O)[C@@H]1C` [Rifampicin]: the “collision cross section (N2)” value in data set [1] ([M+H]+) stood at 287.13 Å²; in data set [1] ([M+Na]+) it was 285.07 Å².

In the case of `C[C@@H]1O[C@@H](OC[C@H]2O[C@@H](Oc3c(-c4ccc(O)c(O)c4)oc4cc(O)cc(O)c4c3=O)[C@H](O)[C@@H](O)[C@@H]2O)[C@H](O)[C@H](O)[C@H]1O` [Rutin], the “collision cross section (N2)” value is given as 236.2 Å² in data set [1] ([M+H]+), 251.61 Å² in data set [1] ([M+Na]+), 232.6 Å² in data set [2] ([M+H]+) and 231.04 Å² in data set [2] ([M-H]-). Regarding `C[S+](CC[C@H](N)C(=O)[O-])C[C@H]1O[C@@H](n2cnc3c(N)ncnc32)[C@H](O)[C@@H]1O` (stereo partly drawn) [S-Adenosyl-L-methionine], in data set [1] ([M+H]+), the “collision cross section (N2)” value is recorded as 186.46 Å². As for `CCCCCCSC[C@H](NC(=O)CC[C@H](N)C(=O)O)C(=O)NCC(=O)O` [S-Hexyl-glutathione], the “collision cross section (N2)” value in data set [1] ([M+H]+) was 203.2 Å². For `C=C[C@H]1[C@H](O[C@@H]2O[C@H](CO)[C@@H](O)[C@H](O)[C@H]2O)OC=C(C(=O)OC)[C@H]1CC=O` [Secologanin], the “collision cross section (N2)” value in data set [1] ([M+Na]+) is listed as 191.96 Å². With `NCCc1c[nH]c2ccc(O)cc12` [Serotonin], the entries for the “collision cross section (N2)” value in data set [1] ([M+H]+), in data set [1] ([M+Na]+) and in data set [2] ([M-H]-) were 151.9 Å², 150.8 Å² and 135.85 Å², respectively.

As to `O=C(O)C1=C[C@@H](O)[C@@H](O)[C@H](O)C1` [Shikimic Acid], the “collision cross section (N2)” value in data set [1] ([M+H]+) is 149.5 Å².

Consider `CCCCCCCCCCCCCCCCCC(=O)O` [Stearic Acid], for which, in data set [1] ([M+Na]+), the “collision cross section (N2)” value was determined as 191.83 Å². `O=C(O)CCC(=O)O` [Succinic Acid]: the “collision cross section (N2)” value in data set [1] ([M+H]+) came out at 122.66 Å². As to `Nc1ccc(S(N)(=O)=O)cc1` [Sulfanilamide], the entries for the “collision cross section (N2)” value in data set [1] ([M+H]+) and in data set [1] ([M+Na]+) were 156.07 Å² and 152.77 Å², respectively.

For `Cc1ncc(C[n+]2csc(CCOP(=O)(O)O)c2C)c(N)n1` [Thiamine Monophosphate], in data set [1] ([M+H]+), the “collision cross section (N2)” value was 172.53 Å². For the compound `Cc1cn([C@H]2C[C@H](O)[C@@H](COP(=O)(O)O)O2)c(=O)[nH]c1=O` [Thymidine 5'-Monophosphate], the “collision cross section (N2)” value in data set [1] ([M+H]+) is recorded as 163.84 Å²; in data set [1] ([M+Na]+) it was 169.74 Å². As to `O=P(O)(O)OC[C@H]1O[C@H](O[C@H]2O[C@H](CO)[C@@H](O)[C@H](O)[C@H]2O)[C@H](O)[C@@H](O)[C@@H]1O` [Trehalose 6-Phosphate], the “collision cross section (N2)” value in data set [1] ([M+Na]+) came out at 192.43 Å². With `C[n+]1cccc(C(=O)[O-])c1` [Trigonelline], the figures for the “collision cross section (N2)” value in data set [1] ([M+H]+) and in data set [1] ([M+Na]+) were 126.37 Å² and 139.87 Å², respectively.
